Measurements as given in US20170183297A1, “OMEGA-3 ANALOGUES” (The University of Sydney, priority 2014, published 2017).

How the values were obtained:
[1] = system: human MDA-MB-231 breast cancer cell xenografts; assay: Dose-response effects on breast tumour growth in nude mice with MDA-MB-231 xenografts (37 days IP); type: in vivo, mouse (nu/nu Balb/c, female); settings: for Average tumour volumes / Final tumour weight at day 37: mean ± SEM, n = 5; for tumour suppression (overall statement): all doses (2.5, 10, 40 mg/kg)
Procedure: Dose-response effects of compounds CP01 and CP03 on breast tumour growth in nude mice with human MDA-MB-231 breast cancer cell xenografts (subcutaneous injection in mammary fat pad)
5 weeks old when ordered, 6 weeks old when xenografted.
human MDA-MB-231 cells, 4×10^5 cells/100 μL (Matrigel:PBS 1:1)/mouse, subcutaneous injection into the third mammary fat pad.
7 groups, 5 mice in each group. After the cell injection, 7 cages were randomly divided into 7 groups following the average mouse body weight of mice each cage. • Control • CP01-2.5 mg/kg • CP01-10 mg/kg • CP01-40 mg/kg • CP03-2.5 mg/kg • CP03-10 mg/kg • CP03-40 mg/kg
Solid CP01 or CP03 powder was dissolved in DMSO at 40° C. to a final concentration of 400 mg/mL.
(§1) After 4 days of cancer cell xenografting, IP administration of compounds CP01 or CP03 was started (2.5, 10 and 40 mg/kg). Compounds were diluted in corn oil containing 4% DMSO. Injection volume was 50 μL each mouse with a 20-gram body weight. IP injections were administered once a day for six days per week for a total of 37 days in duration. In a further study (see below), different doses of CP01, CP03 and CP05 were administered to nude mice carrying MDA-MB-231 xenografts (FIGS. 11, 12 and 13, respectively). The endpoint in this experiment was tumour volume and the experiments were conducted for 32 days.
(§2) Body weights were recorded six days per week and tumour sizes were measured with a pair of caliper, every three to four days.

[2] = Mouse body weight growth in control and treated groups; type: in vivo; settings: IP 2.5, 10 and 40 mg/kg, 37 days; for body weight growth of treated mice compared with control group: once a day six days per week
Procedure: The weight range at the start of IP treatments was from 13.1 g to 18.1 g at Day 1 and increased to a range of 17.1 g to 21.3 g at Day 37.
as §1, §2

[3] = system: MDA-MB-231 cells; assay: Matrigel migration assay; type: cell-based, Human; settings: 1, 5 and 10 μM, 24 h; P<0.01; FIG. 4
Procedure: Human MDA-MB-231, MDA-MB-468 and T-47D breast cancer cells were obtained from the American Type Culture Collection (ATCC; Manassas, Va., USA). Cells were plated on 96-well microplates at a density of 1×10^4 cells per well for MTT, ATP, Caspase and JC-1 assays. Cells were maintained in Dulbecco's Modified Eagle's Medium (DMEM; Invitrogen, Carlsbad, Calif., USA) supplemented with 10% (w/v) fetal bovine serum (Hyclone, Salt Lake City, Utah, USA), 100 U/mL penicillin, and 100 μg/mL streptomycin (Invitrogen). All of the cells were incubated at 37° C. in a humidified atmosphere of 95% air and 5% CO2. Confluent cells (80-90%) were washed in phosphate-buffered saline, harvested using Trypsin/EDTA, and counted using trypan blue exclusion in a Countess Automated Cell Counter (Invitrogen) before passaging or use in assays.
MDA-MB-231 cells were trypsinized and resuspended in serum-free DMEM media (3.5×10^6 cells/mL). The cell suspension was mixed 1:1 with Matrigel solution (Bio Scientific; Kirrawee, NSW, Australia). Aliquots (20 μL containing 3.5×10^4 cells) were placed into 6-well tissue-culture dishes to form well-defined droplets and incubated at 37° C. for 5 min to enable semi-solidification. Migration media was freshly made as DMEM containing 20% fetal bovine serum, epidermal growth factor 10 pg/mL, hydrocortisone 0.4 ng/mL, vascular endothelial growth factor (VEGF, 1 pg/mL), basic fibroblast growth factor (bFGF, 20 pg/mL), insulin-like growth factor-1 (40 pg/mL), ascorbic acid (2 ng/mL) and heparin (45 ng/mL). Compounds were added in migration media (3 mL/well) and plates were then incubated for 24 h. Cells that migrated out of droplets were scored using phase-contrast microscopy and digital image analysis (Olympus).

## O=C(O)CCCCCCCCCCCSCCCNC(=O)Nc1ccc(Cl)c(C(F)(F)F)c1 [CP01, 12-{[3-({[4-Chloro-3-(trifluoromethyl)phenyl]carbamoyl}amino)propyl]sulfanyl}dodecanoic acid]
[1]; 2.5 mg/kg IP, Day 8
  Average tumour volumes: 12.5 ± 1.9 mm^3
[1]; 2.5 mg/kg IP, Day 11
  Average tumour volumes: 10.5 ± 1^ mm^3
[1]; 2.5 mg/kg IP, Day 15
  Average tumour volumes: 10 ± 2.9 mm^3
[1]; 2.5 mg/kg IP, Day 18
  Average tumour volumes: 12.2 ± 3.2 mm^3
[1]; 2.5 mg/kg IP, Day 21
  Average tumour volumes: 16.9 ± 4.4 mm^3
[1]; 2.5 mg/kg IP, Day 25
  Average tumour volumes: 23.9 ± 6.1 mm^3
[1]; 2.5 mg/kg IP, Day 29
  Average tumour volumes: 29.3 ± 7.4 mm^3
[1]; 2.5 mg/kg IP, Day 32
  Average tumour volumes: 52.1 ± 15 mm^3
[1]; 2.5 mg/kg IP, Day 35
  Average tumour volumes: 67.7 ± 17.1 mm^3
[1]; 2.5 mg/kg IP, Day 37
  Average tumour volumes: 78.7 ± 19.8 mm^3
[1]; 2.5 mg/kg IP
  Final tumour weight at day 37: 0.05 ± 0.01 g
[1]; 10 mg/kg IP, Day 8
  Average tumour volumes: 15 ± 2.4 mm^3
[1]; 10 mg/kg IP, Day 11
  Average tumour volumes: 15.6 ± 1.8 mm^3
[1]; 10 mg/kg IP, Day 15
  Average tumour volumes: 16.5 ± 2.8 mm^3
[1]; 10 mg/kg IP, Day 18
  Average tumour volumes: 22 ± 4.5 mm^3
[1]; 10 mg/kg IP, Day 21
  Average tumour volumes: 26.4 ± 4.5 mm^3
[1]; 10 mg/kg IP, Day 25
  Average tumour volumes: 33.6 ± 6.2 mm^3
[1]; 10 mg/kg IP, Day 29
  Average tumour volumes: 45.2 ± 11.2 mm^3
[1]; 10 mg/kg IP, Day 32
  Average tumour volumes: 67.5 ± 19.3 mm^3
[1]; 10 mg/kg IP, Day 35
  Average tumour volumes: 85.7 ± 25.3 mm^3
[1]; 10 mg/kg IP, Day 37
  Average tumour volumes: 116.5 ± 37.6 mm^3
[1]; 10 mg/kg IP
  Final tumour weight at day 37: 0.08 ± 0.03 g
[1]; 40 mg/kg IP, Day 8
  Average tumour volumes: 11 ± 1.3 mm^3
[1]; 40 mg/kg IP, Day 11
  Average tumour volumes: 13.6 ± 2^ mm^3
[1]; 40 mg/kg IP, Day 15
  Average tumour volumes: 14.7 ± 0.7 mm^3
[1]; 40 mg/kg IP, Day 18
  Average tumour volumes: 23.6 ± 2.7 mm^3
[1]; 40 mg/kg IP, Day 21
  Average tumour volumes: 26.3 ± 6^ mm^3
[1]; 40 mg/kg IP, Day 25
  Average tumour volumes: 35.9 ± 13.4 mm^3
[1]; 40 mg/kg IP, Day 29
  Average tumour volumes: 47.8 ± 17^ mm^3
[1]; 40 mg/kg IP, Day 32
  Average tumour volumes: 67.8 ± 26 mm^3
[1]; 40 mg/kg IP, Day 35
  Average tumour volumes: 116.6 ± 40.7 mm^3
[1]; 40 mg/kg IP, Day 37
  Average tumour volumes: 132.8 ± 50.9 mm^3
[1]; 40 mg/kg IP
  Final tumour weight at day 37: 0.11 ± 0.05 g
[1]
  tumour suppression (overall statement): strong trends toward tumour suppression at all doses
[1]; dose 2.5 mg/kg
  reduction in tumour size (suppression of tumour growth): 59%
[1]; dose 10 mg/kg
  reduction in tumour size (suppression of tumour growth): 39%
[1]; dose 40 mg/kg
  reduction in tumour size (suppression of tumour growth): 30%
[2]
  evidence of toxicity (from body weight): no evidence of toxicity
  body weight growth of treated mice compared with control group: no significant difference

## Cc1ccc(NC(=O)NCCCSCCCCCCCCCCCC(=O)O)cc1 [CP02, 12-[(3-{[(4-Methylphenyl)carbamoyl]amino}propyl)sulfanyl]dodecanoic acid]
[3]
  migration of MDA-MB-231 cells out of matrigel droplets: all decreases significant

## O=C(O)CSCCCCCCCCCCCCCNC(=O)Nc1ccc(Cl)c(C(F)(F)F)c1 [CP03, {[13-({[4-Chloro-3-(trifluoromethyl)phenyl]carbamoyl}amino)tridecyl]sulfanyl}acetic acid]
[1]; 2.5 mg/kg IP, Day 8
  Average tumour volumes: 8.8 ± 1.4 mm^3
[1]; 2.5 mg/kg IP, Day 11
  Average tumour volumes: 10.7 ± 1.3 mm^3
[1]; 2.5 mg/kg IP, Day 15
  Average tumour volumes: 14.5 ± 0.9 mm^3
[1]; 2.5 mg/kg IP, Day 18
  Average tumour volumes: 18 ± 1.6 mm^3
[1]; 2.5 mg/kg IP, Day 21
  Average tumour volumes: 23 ± 2.8 mm^3
[1]; 2.5 mg/kg IP, Day 25
  Average tumour volumes: 29.5 ± 6 mm^3
[1]; 2.5 mg/kg IP, Day 29
  Average tumour volumes: 45.4 ± 9.5 mm^3
[1]; 2.5 mg/kg IP, Day 32
  Average tumour volumes: 60.9 ± 13.7 mm^3
[1]; 2.5 mg/kg IP, Day 35
  Average tumour volumes: 80.4 ± 21^ mm^3
[1]; 2.5 mg/kg IP, Day 37
  Average tumour volumes: 106.7 ± 29.4 mm^3
[1]; 2.5 mg/kg IP
  Final tumour weight at day 37: 0.09 ± 0.03 g
[1]; 10 mg/kg IP, Day 8
  Average tumour volumes: 11.3 ± 2.9 mm^3
[1]; 10 mg/kg IP, Day 11
  Average tumour volumes: 10.9 ± 1.5 mm^3
[1]; 10 mg/kg IP, Day 15
  Average tumour volumes: 16.5 ± 2.8 mm^3
[1]; 10 mg/kg IP, Day 18
  Average tumour volumes: 19.3 ± 2.1 mm^3
[1]; 10 mg/kg IP, Day 21
  Average tumour volumes: 17.1 ± 2.9 mm^3
[1]; 10 mg/kg IP, Day 25
  Average tumour volumes: 23.1 ± 5 mm^3
[1]; 10 mg/kg IP, Day 29
  Average tumour volumes: 29 ± 7.5 mm^3
[1]; 10 mg/kg IP, Day 32
  Average tumour volumes: 39.3 ± 12.9 mm^3
[1]; 10 mg/kg IP, Day 35
  Average tumour volumes: 50.3 ± 21.2 mm^3
[1]; 10 mg/kg IP, Day 37
  Average tumour volumes: 67.3 ± 33.3 mm^3
[1]; 10 mg/kg IP
  Final tumour weight at day 37: 0.06 ± 0.03 g
[1]; 40 mg/kg IP, Day 8
  Average tumour volumes: 13.4 ± 2.3 mm^3
[1]; 40 mg/kg IP, Day 11
  Average tumour volumes: 12.5 ± 2^ mm^3
[1]; 40 mg/kg IP, Day 15
  Average tumour volumes: 17.2 ± 1.9 mm^3
[1]; 40 mg/kg IP, Day 18
  Average tumour volumes: 24.4 ± 5.5 mm^3
[1]; 40 mg/kg IP, Day 21
  Average tumour volumes: 24 ± 5.2 mm^3
[1]; 40 mg/kg IP, Day 25
  Average tumour volumes: 35.7 ± 10.7 mm^3
[1]; 40 mg/kg IP, Day 29
  Average tumour volumes: 46.3 ± 16.7 mm^3
[1]; 40 mg/kg IP, Day 32
  Average tumour volumes: 65.7 ± 23^ mm^3
[1]; 40 mg/kg IP, Day 35
  Average tumour volumes: 96.1 ± 33.8 mm^3
[1]; 40 mg/kg IP, Day 37
  Average tumour volumes: 118.9 ± 44.7 mm^3
[1]; 40 mg/kg IP
  Final tumour weight at day 37: 0.09 ± 0.04 g
[1]
  tumour suppression (overall statement): strong trends toward tumour suppression at all doses
[1]; dose 2.5 mg/kg
  reduction in tumour size (suppression of tumour growth): 44%
[1]; dose 10 mg/kg
  reduction in tumour size (suppression of tumour growth): 65%
[1]; dose 40 mg/kg
  reduction in tumour size (suppression of tumour growth): 38%
[2]
  evidence of toxicity (from body weight): no evidence of toxicity
  body weight growth of treated mice compared with control group: no significant difference

## Cc1ccc(NC(=O)NCCCCCCCCCCCCCSCC(=O)O)cc1 [CP04]
[3]
  migration of MDA-MB-231 cells out of matrigel droplets: all decreases significant

## Cc1ccc(NC(=O)NCCCSCCCCCCCCCSCC(=O)O)cc1 [CP06, ({9-[(3-{[(4-Methylphenyl)carbamoyl]amino}propyl)sulfanyl]nonyl}sulfanyl)acetic acid]
[3]
  migration of MDA-MB-231 cells out of matrigel droplets: all decreases significant
